From ChEMBL document CHEMBL3044860, “13-Deoxyitol A, a new insecticidal isoryanodane diterpene from the seeds of Itoa orientalis” (2009)

Legend:
Type in all cases: functional
Plutella xylostella [1] = assay: Contact toxicity against third-instar larval stage of Plutella xylostella (diamondback moth) applied topically measured per insect
Sogatella furcifera [2] = assay: Antifeedant activity against fourth-instar nymph stage of Sogatella furcifera in tillering to booting period rice seedlings
Spodoptera litura [3] = assay: Contact toxicity against third-instar larval stage of Spodoptera litura applied topically measured per insect
Nilaparvata lugens [4] = assay: Contact toxicity against macropterous female Nilaparvata lugens (brown planthopper) applied topically measured per insect
Sogatella furcifera [5] = assay: Contact toxicity against macropterous female Sogatella furcifera applied topically measured per insect
Plutella xylostella [6] = assay: Antifeedant activity against third-instar larval stage of Plutella xylostella (diamondback moth) in cabbage mustard leaves
Spodoptera litura [7] = assay: Antifeedant activity against third-instar larval stage of Spodoptera litura in cabbage mustard leaves
Nilaparvata lugens [8] = assay: Antifeedant activity against fourth-instar nymph stage of Nilaparvata lugens (brown planthopper) in tillering to booting period rice seedlings

Row | Compound | LD50 (Plutella xylostella [1]) [µg] | AFC50 (Sogatella furcifera [2]) [µg/mL] | LD50 (Spodoptera litura [3]) [µg] | LD50 (Nilaparvata lugens [4]) [µg] | LD50 (Sogatella furcifera [5]) [µg] | AFC50 (Plutella xylostella [6]) [µg/mL] | AFC50 (Spodoptera litura [7]) [µg/mL] | AFC50 (Nilaparvata lugens [8]) [µg/mL]
1 | CC(C)[C@@]1(O)[C@H](O)[C@@H]2[C@@]3(O)[C@@H]4O[C@@](O)(C[C@@]2(C)[C@@]2(O)CC[C@@H](C)[C@@H]42)[C@]31C [ITOL A] | 0.22 | 29.3 | 0.22 | >2 | >2 | 22.5 | 47.5 | 34.8
2 | CC(C)[C@@H]1[C@H](O)[C@H]2C(C)(CO)[C@@]3(O)CC[C@@H](C)[C@H]3[C@H]3OC[C@]1(C)[C@]32O (stereo not given in full) [13-DEOXYITOL A] | 0.22 | 23.5 | 0.22 | >2 | >2 | 29.3 | 50.1 | 38.9
3 | C/C=C(\C)C(=O)O[C@H]1C[C@@H](OC(C)=O)[C@@]2(C(=O)OC)CO[C@H]3[C@@H](O)[C@@](C)([C@]45O[C@@]4(C)[C@@H]4C[C@H]5O[C@@H]5OC=C[C@@]54O)[C@H]4[C@]1(CO[C@]4(O)C(=O)OC)[C@@H]32 [AZADIRACHTIN A] |  | 7 |  |  |  | 9.3 | 9.8 | 7.5
